Measured values as given in paper PMC10257758 (Drug development research, 2023).
Where “and” joins values, the source holds several entries; their conditions need not be identical. Equal values may be shown once.

Assays:
[1] = biological target: CA XII (Homo sapiens, UniProt O43570); experiment: CA-catalysed CO2 hydration stopped-flow inhibition assay, CA XII; assay type: biochemical; conditions: mean from 3 assays
[2] = biological target: CA II (Homo sapiens, UniProt P00918); experiment: CA-catalysed CO2 hydration stopped-flow inhibition assay, CA II; assay type: biochemical; conditions: mean from 3 assays
[3] = biological target: CA IX (Homo sapiens, UniProt Q16790); experiment: CA-catalysed CO2 hydration stopped-flow inhibition assay, CA IX; assay type: biochemical; conditions: mean from 3 assays
[4] = biological target: CA I (Homo sapiens, UniProt P00915); experiment: CA-catalysed CO2 hydration stopped-flow inhibition assay, CA I; assay type: biochemical; conditions: mean from 3 assays
CA I, sequence (P00915 whole entry): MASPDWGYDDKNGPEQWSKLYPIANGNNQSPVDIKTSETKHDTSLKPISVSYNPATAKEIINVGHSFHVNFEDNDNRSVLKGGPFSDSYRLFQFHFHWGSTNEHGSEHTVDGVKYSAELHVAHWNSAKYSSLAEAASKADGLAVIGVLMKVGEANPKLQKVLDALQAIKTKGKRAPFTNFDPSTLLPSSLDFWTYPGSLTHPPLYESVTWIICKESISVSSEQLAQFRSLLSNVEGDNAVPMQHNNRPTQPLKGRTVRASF

[5] = tested on: HEK293 cells; experiment: MTS cytotoxicity / cell viability assay; assay type: cell-based, human; conditions: low tumorigenic cells (HEK293)
[6] = MTS cytotoxicity / cell viability assay; assay type: cell-based, human; conditions: human, HEK293 cells

CA XII, sequence (O43570 25-354): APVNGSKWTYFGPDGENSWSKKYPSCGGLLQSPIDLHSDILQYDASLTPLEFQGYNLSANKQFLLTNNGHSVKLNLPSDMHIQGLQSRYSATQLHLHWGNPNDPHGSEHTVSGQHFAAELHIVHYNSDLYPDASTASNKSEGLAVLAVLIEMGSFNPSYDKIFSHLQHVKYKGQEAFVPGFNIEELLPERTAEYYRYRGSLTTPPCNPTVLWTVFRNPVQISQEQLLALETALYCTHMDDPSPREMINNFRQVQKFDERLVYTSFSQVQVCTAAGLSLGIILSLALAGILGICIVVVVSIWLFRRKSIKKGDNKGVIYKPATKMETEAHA

Ki ([1]; cells/sentences stated in nM)	Ki ([2]; cells/sentences stated in nM)	Ki ([3]; cells/sentences stated in nM) [nM]	Ki ([4]; cells/sentences stated in nM) [nM]	Ki ([1]; μM unless stated) [nM]	Ki ([2]; μM unless stated) [nM]	Ki ([3]; μM unless stated) [nM]	Ki ([4]; μM unless stated) [nM]	Compound	general cytotoxic effect [5]	viability at 72 h, 100 µM [6] [%]
69.8 nM	53.5 nM	18.9	193	–	–	–	–	NS(=O)(=O)c1cccc(NC(=O)c2cc3ccccc3oc2=O)c1 [16e, 2-Oxo-N-(3-sulfamoylphenyl)-2H-chromene-3-carboxamide]	–	–
–	–	–	–	> 100000	> 100000	> 100000	> 100000	COc1ccc(NS(=O)(=O)c2ccc(NC(=O)c3cc4cc(Cl)ccc4oc3=O)cc2)nn1 [11b, 6-Chloro-N-(4-(N-(6-methoxypyridazin-3-yl)sulfamoyl)phenyl)-2-oxo-2H-chromene-3-carboxamide]	–	–
54.2 nM	76.3 nM	14.4	1960	–	–	–	–	NS(=O)(=O)c1cccc(NC(=O)c2cc3cc(Br)ccc3oc2=O)c1 [16c, 6-Bromo-2-oxo-N-(3-sulfamoylphenyl)-2H-chromene-3-carboxamide]	–	–
–	–	–	–	6300	10300	–	> 100000	CC(=O)NS(=O)(=O)c1ccc(NC(=O)c2cc3ccccc3oc2=O)cc1 [15e, N-(4-(N-acetylsulfamoyl)phenyl)-2-oxo-2H-chromene-3-carboxamide]	–	–
–	–	–	–	10600	46800	910	> 100000	CC(=O)NS(=O)(=O)c1ccc(NC(=O)c2cc3cc(Br)ccc3oc2=O)cc1 [15c, N-(4-(N-acetylsulfamoyl)phenyl)-6-bromo-2-oxo-2H-chromene-3-carboxamide]	–	–
–	–	–	–	> 100000	> 100000	> 100000	> 100000	COc1ccc(NS(=O)(=O)c2ccc(NC(=O)c3cc4cc(Cl)cc(Cl)c4oc3=O)cc2)nn1 [11d, 6,8-Dichloro-N-(4-(N-(6-methoxypyridazin-3-yl)sulfamoyl)phenyl)-2-oxo-2H-chromene-3-carboxamide]	–	–
–	–	–	–	–	–	–	–	COc1ccc2oc(=O)c(C(=O)Nc3cc(C(F)(F)F)c(S(N)(=O)=O)cc3S(N)(=O)=O)cc2c1 [18f, N-(2,4-disulfamoyl-5-(trifluoromethyl)phenyl)-6-methoxy-2-oxo-2H-chromene-3-carboxamide]	no general cytotoxic effect	97
28.4 nM	64 nM and 63.5 nM	52.3	818	–	–	–	–	NS(=O)(=O)c1ccc(NC(=O)c2cc3cc(Cl)ccc3oc2=O)cc1 [9b, 6-Chloro-2-oxo-N-(4-sulfamoylphenyl)-2H-chromene-3-carboxamide]	–	–
–	–	–	–	> 100000	> 100000	> 100000	> 100000	COc1cc(NS(=O)(=O)c2ccc(NC(=O)c3cc4cc(Br)ccc4oc3=O)cc2)nc(OC)n1 [14c, 6-Bromo-N-(4-(N-(2,6-dimethoxypyrimidin-4-yl)sulfamoyl)phenyl) −2-oxo-2H-chromene −3-carboxamide]	–	–
46.3 nM	238 nM	105	2320	–	–	–	–	NS(=O)(=O)c1ccc(NC(=O)c2cc3cc(Cl)cc(Cl)c3oc2=O)cc1 [9d, 6,8-Dichloro-2-oxo-N-(4-sulfamoylphenyl)-2H-chromene-3-carboxamide]	–	–
–	–	–	–	1900	> 100000	6100	> 100000	CCOC(=O)c1cc2ccc(OCC(=O)Nc3ccc(S(=O)(=O)NC(C)=O)cc3)cc2oc1=O [5c, Ethyl 7-(2-((4-(N-acetylsulfamoyl)phenyl)amino)-2-oxoethoxy)-2-oxo-2H-chromene-3-carboxylate]	–	–
–	–	–	–	> 100000	> 100000	> 100000	> 100000	Cc1nnc(NS(=O)(=O)c2ccc(NC(=O)c3cc4cc(Br)ccc4oc3=O)cc2)s1 [13c, 6-Bromo-N-(4-(N-(5-methyl-1,3,4-thiadiazol-2-yl)sulfamoyl)phenyl)-2-oxo-2H-chromene-3-carboxamide]	–	–
–	–	31.8	–	–	–	–	–	COc1ccc2cc(C(=O)Nc3ccc(S(N)(=O)=O)cc3)c(=O)oc2c1 [9h, 7-Methoxy-2-oxo-N-(4-sulfamoylphenyl)-2H-chromene-3-carboxamide]	–	–
–	–	–	–	> 100000	> 100000	> 100000	> 100000	CCOC(=O)c1cc2ccc(OCC(=O)Nc3ccc(S(=O)(=O)Nc4ncnc(OC)c4OC)cc3)cc2oc1=O [5b, Ethyl 7-(2-((4-(N-(5,6-dimethoxypyrimidin-4-yl)sulfamoyl)phenyl)amino)-2-oxoethoxy)-2-oxo-2H-chromene-3-carboxylate]	–	–
16.2 nM	85.4 nM	67.6	1420	–	–	–	–	NS(=O)(=O)c1ccc(NC(=O)c2cc3cc(Br)ccc3oc2=O)cc1 [9c, 6-Bromo-2-oxo-N-(4-sulfamoylphenyl)-2H-chromene-3-carboxamide]	–	–
–	–	–	–	> 100000	> 100000	> 100000	> 100000	COc1cc(NS(=O)(=O)c2ccc(NC(=O)c3cc4ccccc4oc3=O)cc2)nc(OC)n1 [14e, N-(4-(N-(2,6-dimethoxypyrimidin-4-yl)sulfamoyl)phenyl)-2-oxo-2H-chromene-3-carboxamide]	–	–
49.5 nM	75.2 nM	15.2	225	–	–	–	–	NS(=O)(=O)c1cccc(NC(=O)c2cc3cc(F)ccc3oc2=O)c1 [16i, 6-Fluoro-2-oxo-N-(3-sulfamoylphenyl)-2H-chromene-3-carboxamide]	–	–
20.3 nM	–	–	738	–	–	–	–	CCOC(=O)c1cc2ccc(OCC(=O)Nc3ccc(S(N)(=O)=O)cc3)cc2oc1=O [5a, Ethyl 2-oxo-7-(2-oxo-2-((4-sulfamoylphenyl)amino)ethoxy)-2H-chromene-3-carboxylate]	–	–
52 nM and 52.1 nM	212 nM	5	774	–	–	–	–	COc1ccc2oc(=O)c(C(=O)Nc3cccc(S(N)(=O)=O)c3)cc2c1 [16f, 6-Methoxy-2-oxo-N-(3-sulfamoylphenyl)-2H-chromene-3-carboxamide]	–	–
65.7 nM	23 nM	19.6	74.4	–	–	–	–	CCN(CC)c1ccc2cc(C(=O)OCC(=O)Nc3ccc(S(N)(=O)=O)cc3)c(=O)oc2c1 [compound 22, 2-Oxo-2-((4-sulfamoylphenyl)amino)ethyl-7-(diethylamino)-2-oxo-2H-chromene-3-carboxylate]	–	–
